From PMC5515982, “Hair analysis for the biomonitoring of pesticide exposure: comparison with blood and urine in a rat model” (Archives of Toxicology, 2016)
“And” between values parts separate entries of the source, which are not always exact repeats. Equal entries are not always repeated.

How the values were obtained:
[1] = Concentration of pesticides and metabolites in plasma of rats after 90-day gavage exposure to a pesticide mixture; format: in vivo, rat; conditions: for Slope (linear fit), concentration in plasma versus level of exposure: exposure expressed as mg/kg per day, concentration as ng/mL, detected values only
Experimental: (§1) Eight rats were randomly assigned to each of the experimental groups. A low-calorie water gel that contained the pesticides was administered via gavage to these rats three times per week for 90 days. The doses of the pesticides mixture used for exposure were 4, 10, 20, 40, 100, 200, and 400 µg/kg of body weight. The exposure range was set as follows: The lowest dose was the lowest level allowing the detection of pesticides in hair after a 90-day exposure, based on preliminary experiments not detailed here. Testing lower levels would not have been relevant because some compounds would not be detected anymore (analytical limitation). In addition, for some other compounds, no differences were detected in the current experiment between the lowest level of exposure and the background exposure of the controls. The highest dose was set according to toxicity of compounds, which corresponded to 1/20 of the lowest LD50 (carbofuran). The animals were weighed before each administration in order to adapt the amount of pesticide-containing mixture to the animals’ weight.
(§2) The animals were shaved before the experiment began to ensure that the hair collected at the end of the study accurately reflected the 90-day period of exposure. White and black hairs were collected separately, placed in aluminum foil, and stored at −20 °C until analysis. Blood was collected in EDTA tube from the tail vein, 3 h after oral administration on Day 90. Each sampling (500–750 µL) was immediately centrifuged at 5000×g for 3 min at room temperature, and plasma was separated and stored at −80 °C before analysis. For urine collection, the rats were placed in individual metabolic cages (Type 304 stainless steel, Techniplast, Zwaag, Netherlands) immediately after gavage for 24 h (from Day 88 to Day 89). The urine was collected in refrigerated tubes over a 24-h period and was weighed before storage at −20 °C.
(§3) Depending on the compounds, only parent pesticides, only metabolites, or both parent and metabolites were analyzed in the biological matrices. The chemicals were analyzed as previously described (Chata et al. [2016]; Hardy et al. [2015]). Despite the different nature of the biological matrices analyzed (liquid vs. solid), method protocols were developed to ensure similarity so they could be reliably compared to the information obtained from each matrix, thereby ensuring that differences were not likely attributable to analytical bias. […] Because analytical background noise was absent from the chromatograms because tandem mass spectrometry was used, the approaches based on background noise for determining the limit of detection (LOD) were not applicable. The LOD was therefore determined as the lowest concentration that was detected in the samples analyzed during this study. Selectivity was ensured by analyte retention time and by the quantification transition to confirmation transition ratio that had to be lower than the 20% difference from the ratio obtained with standard compounds. The LOD ranged from 0.02 pg/mg for β-endosulfan to 2.7 pg/mg for dichlorodiphenyltrichloroethane (p,p′-DDT) in hair, from 0.2 pg/mL for trifluralin to 13.6 ng/mL for 2-isopropoxyphenol (2-IPP) in urine, and from 2.4 pg/mL for β-endosulfan to 679 pg/mL for p,p′-DDT in plasma. Because the analysis of parent pesticides and metabolites was conducted on the same hair sample, the addition of parent organophosphate isotope-labeled analog standards was not possible because their degradation into non-labeled dialkyl phosphate (DAP) during the analytical procedure would have hindered the analysis of DAP due to exposure. In hair, only organophosphate metabolites (not parents) were therefore quantified, and only qualitative results were obtained for parents.
(§4) The association between the level of exposure and the analyte concentration in the matrix (i.e., hair, urine, and plasma) was assessed by the Pearson product-moment correlation coefficient (R Pearson). […]

[2] = ref Timchalk et al. [2007], cited from earlier work
[3] = Concentration of pesticides and metabolites in hair of rats after 90-day gavage exposure to a pesticide mixture; format: in vivo, rat; conditions: for Slope (linear fit), concentration in hair versus level of exposure: exposure expressed as mg/kg per day, concentration as pg/mg, detected values only
Experimental: as §1, §2, §3, §4

[4] = Concentration of pesticides and metabolites in 24-h urine of rats after 90-day gavage exposure to a pesticide mixture; format: in vivo, rat; conditions: for Slope (linear fit), concentration in urine versus level of exposure: exposure expressed as mg/kg per day, concentration as ng/mL, detected values only
Experimental: as §1, §2, §3, §4

[5] = Influence of hair pigmentation: concentration in white hair versus pigmented hair; format: in vivo, rat; conditions: slope close to 1 = poor influence of pigmentation
Experimental: as §2
The influence of hair pigmentation on pesticide incorporation was assessed by comparing the concentration detected in white hair versus pigmented hair which were collected and analyzed separately from each animal. […] For the majority of the chemicals tested during the current study, pigmentation seemed to have a very limited effect on the concentration in hair, and only few compounds seemed to be pigmentation sensitive.

## CCOP(=S)(OCC)Oc1nc(Cl)c(Cl)cc1Cl [Chlorpyrifos]
[1]; control group
  Mean concentration in plasma: 0.15 ± 0.01 ng/mL
[1]; most exposed group
  Mean concentration in plasma: 0.41 ± 0.09 ng/mL
[1]
  Slope (linear fit), concentration in plasma versus level of exposure: 1.24
[2]
  Metabolization of the parent compound: 0.2 h

## CCOP(=O)(O)OCC [DEP, diethyl phosphate]
[3]
  Slope (linear fit), concentration in hair versus level of exposure: 4.54
[4]
  Slope (linear fit), concentration in urine versus level of exposure: 2.0 E + 06
[5]
  Slope, concentration in white hair versus pigmented hair: 0.892
[2]; after oral dosing of chlorpyrifos
  Half-life for α-phase in rat blood: 12 min

## ClC(Cl)=C(c1ccc(Cl)cc1)c1ccc(Cl)cc1 [p,p′-DDE, p,p′-dichlorodiphenyldichloroethylene]
[3]
  Slope (linear fit), concentration in hair versus level of exposure: 273.5
[4]
  Exposure level from which detected in urine: 200 µg/kg
[1]
  Slope (linear fit), concentration in plasma versus level of exposure: 289
[5]
  Slope, concentration in white hair versus pigmented hair: 1.287

## Clc1ccc(C(c2ccc(Cl)cc2)C(Cl)(Cl)Cl)cc1 [p,p′-DDT, dichlorodiphenyltrichloroethane]
[3]
  Exposure level from which detected in hair: 20 µg/kg per day
  Slope (linear fit), concentration in hair versus level of exposure: 184.7
[4]
  Exposure level from which detected in urine: 200 µg/kg
[1]
  Slope (linear fit), concentration in plasma versus level of exposure: 175
[5]
  Slope, concentration in white hair versus pigmented hair: 0.876

## O=S1OC[C@@H]2[C@H](CO1)[C@]1(Cl)C(Cl)=C(Cl)[C@]2(Cl)C1(Cl)Cl (stereo partly drawn) [β-Endosulfan, β-endosulfan]
[3]
  Slope (linear fit), concentration in hair versus level of exposure: 2.71
[4]; ND = not detected, whatever the level of exposure
  Concentration range in urine (detection): not detected
[1]
  Slope (linear fit), concentration in plasma versus level of exposure: 1.50
[5]
  Slope, concentration in white hair versus pigmented hair: 0.965

## Cl[C@H]1[C@H](Cl)[C@@H](Cl)[C@H](Cl)[C@@H](Cl)[C@@H]1Cl [β-HCH, β-hexachlorocyclohexane]
[3]
  Slope (linear fit), concentration in hair versus level of exposure: 612 and 612.6
[4]
  Slope (linear fit), concentration in urine versus level of exposure: 6 297
[1]
  Slope (linear fit), concentration in plasma versus level of exposure: 199
[5]
  Slope, concentration in white hair versus pigmented hair: 1.021

## Cl[C@H]1[C@H](Cl)[C@@H](Cl)[C@@H](Cl)[C@H](Cl)[C@H]1Cl [γ-HCH, γ-hexachlorocyclohexane]
[3]
  Slope (linear fit), concentration in hair versus level of exposure: 119.8
[4]; dosage of 200 µg/kg, one animal, not presented in Fig. 1
  Concentration in urine, single point out of scale: 9 ng/mL
[4]
  Slope (linear fit), concentration in urine versus level of exposure: 5 715
[1]
  Slope (linear fit), concentration in plasma versus level of exposure: 47.2
[5]
  Slope, concentration in white hair versus pigmented hair: 0.969
